Values quoted from earlier work as cited in patent publication US20200046831A1, “NANOEMULSION COMPRISING IMIDAZOQUINOLINE-BASED MATERIAL AND USE THEREOF” (DANDI BIOSCIENCE INC., priority 2017, published 2020).

CC(C)Cn1cnc2c(N)nc3ccccc3c21 [imiqimod (R837), imiquimod]
solubility in organic solvents: not dissolved in most organic solvents except for DMSO
